Patent US12612384B2, “Heterocyclic CYP4A inhibitor compounds and compositions thereof” (MBD CO., LTD., priority 2021, dated 2026)
Where two headings read alike, the source gives them in different places.

Target: T1, CYP4A (Homo sapiens, UniProt Q02928)
T1 construct: purchased; host or cells: bacterial membranes ('bactosome')
T1 sequence (Q02928 5-519): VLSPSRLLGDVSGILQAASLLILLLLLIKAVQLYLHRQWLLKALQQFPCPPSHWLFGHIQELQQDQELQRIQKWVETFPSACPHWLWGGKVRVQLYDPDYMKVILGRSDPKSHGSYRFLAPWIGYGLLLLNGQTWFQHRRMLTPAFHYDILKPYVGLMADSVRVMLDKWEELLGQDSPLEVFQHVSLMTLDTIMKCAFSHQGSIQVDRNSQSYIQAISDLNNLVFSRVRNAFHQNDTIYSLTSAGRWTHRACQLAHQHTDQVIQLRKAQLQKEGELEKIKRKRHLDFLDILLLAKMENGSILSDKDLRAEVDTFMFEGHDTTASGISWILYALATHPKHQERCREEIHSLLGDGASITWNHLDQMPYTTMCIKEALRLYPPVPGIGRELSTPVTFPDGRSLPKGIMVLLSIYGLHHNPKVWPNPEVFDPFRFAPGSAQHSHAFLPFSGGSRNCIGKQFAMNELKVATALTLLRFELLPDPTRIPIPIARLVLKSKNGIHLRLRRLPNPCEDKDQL
Assay: CYP4A enzyme assay (luminescence, Luciferin-ME)
Type: biochemical
Conditions: Compound concentration 5 μM
In short: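 Compounds (5 μM) were preincubated 15 min at room temperature with CYP4A bactosomes in 100 mM KPO4, 0.1% BSA, 1 mM DTT. Reaction ran 30 min at room temperature after adding 5 mM Luciferin-ME and NADPH regeneration system. Luminescence after 15 min with detection reagent; inhibition judged by comparing well signals.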

[1] = 70%-90%, read-out: % Inhibition 70%-90%
[2] = Greater than 90%, read-out: % Inhibition Greater than 90%
[3] = 50%-70%, read-out: % Inhibition 50%-70%

For O=C(C1CCN(S(=O)(=O)c2ccc(Br)cc2)CC1)N1CCN(c2ccnc3ccccc23)CC1 [Example 63, (1-((4-bromophenyl)sulfonyl)piperidin-4-yl)(4-(quinolin-4-yl)piperazin-1-yl)methanone], which inhibition at 5 µM [1] is on record?
The inhibition at 5 µM was 70 to 90%.

How did the inhibition at 5 µM [2] turn out when O=C(c1ncn[nH]1)N1CC[C@H](C(=O)N2CCN(c3ccnc4cc(F)ccc34)CC2)C1 [Example 161, (S)-(1-(4H-1,2,4-triazole-3-carbonyl)pyrrolidin-3-yl)(4-(7-fluoroquinolin-4-yl)piperazin-1-yl)methanone] was run?
Its inhibition at 5 µM is greater than 90%.

For Cc1cc(N2CCN(C(=O)C3CCCN(C(=O)c4ccc(F)cc4)C3)CC2)c2ccccc2n1 (centres unmarked) [Example 101, (1-(4-fluorobenzoyl)piperidin-3-yl)(4-(2-methylquinolin-4-yl)piperazin-1-yl)methanone], which inhibition at 5 µM [3] is on record?
The inhibition at 5 µM was 50 to 70%.

For CC(=O)Nc1cccc(S(=O)(=O)N2CCC(C(=O)N3CCN(c4ccnc5cc(F)ccc45)CC3)CC2)c1 [Example 55, N-(3-((4-(4-(7-fluoroquinolin-4-yl)piperazine-1-carbonyl)piperidin-1-yl)sulfonyl)phenyl)acetamide], which inhibition at 5 µM [2] is on record?
Its inhibition at 5 µM is greater than 90%.

How did the inhibition at 5 µM [2] turn out when O=C([C@H]1CCN(S(=O)(=O)c2ncn[nH]2)C1)N1CCN(c2ccnc3cc(F)ccc23)CC1 [Example 19, (S)-(1-((1H-1,2,4-triazol-5-yl)sulfonyl)pyrrolidin-3-yl)(4-(7-fluoroquinolin-4-yl)piperazin-1-yl)methanone] was run?
Its inhibition at 5 µM is greater than 90%.

Which inhibition at 5 µM [1] does the source give for O=C(C1CCN(Cc2nnn[nH]2)C1)N1CCN(c2ccnc3cc(F)ccc23)CC1 (centres unmarked) [Example 155, (1-((1H-tetrazol-5-yl)methyl)pyrrolidin-3-yl)(4-(7-fluoroquinolin-4-yl)piperazin-1-yl)methanone] here?
Its inhibition at 5 µM is 70 to 90%.

With COc1ccc(C(=O)N2CCCC(C(=O)N3CCN(c4cc(C(F)(F)F)nc5ccccc45)CC3)C2)cc1 (centres unmarked) [Example 99, (1-(4-methoxybenzoyl)piperidin-3-yl)(4-(2-(trifluoromethyl)quinolin-4-yl)piperazin-1-yl)methanone] as the compound, how does the inhibition at 5 µM [3] read?
Its inhibition at 5 µM is 50 to 70%.

How did the inhibition at 5 µM [2] turn out when O=C(C1CCN(S(=O)(=O)c2ccc(-c3cccnc3)cc2)CC1)N1CCN(c2ccnc3cc(F)ccc23)CC1 [Example 58, (4-(7-fluoroquinolin-4-yl)piperazin-1-yl)(1-((4-(pyridin-3-yl)phenyl)sulfonyl)piperidin-4-yl)methanone] was run?
Its inhibition at 5 µM is greater than 90%.

Which inhibition at 5 µM [2] does the source give for O=C([C@H]1CCN(S(=O)(=O)c2ccccn2)C1)N1CCN(c2ccnc3cc(F)ccc23)CC1 [Example 157, (S)-(4-(7-fluoroquinolin-4-yl)piperazin-1-yl)(1-(pyridin-2-ylsulfonyl)pyrrolidin-3-yl)methanone] here?
Its inhibition at 5 µM is greater than 90%.

With O=C(C1CCCN(S(=O)(=O)c2ccco2)C1)N1CCN(c2ccnc3cc(Cl)ccc23)CC1 (centres unmarked) [Example 123, (4-(7-chloroquinolin-4-yl)piperazin-1-yl)(1-(furan-2-ylsulfonyl)piperidin-3-yl)methanone] as the compound, how does the inhibition at 5 µM [3] read?
The inhibition at 5 µM was 50 to 70%.

With COc1ccc2c(N3CCN(C(=O)C4CCCN(C(=O)c5ccc(NC(C)=O)cc5)C4)CC3)ccnc2c1 (centres unmarked) [Example 89, N-(4-(3-(4-(7-methoxyquinolin-4-yl)piperazine-1-carbonyl)piperidine-1-carbonyl)phenyl)acetamide] as the compound, how does the inhibition at 5 µM [1] read?
The inhibition at 5 µM was 70 to 90%.

With O=C(C1CCCN(S(=O)(=O)c2ccc(N3CCOCC3)nc2)C1)N1CCN(c2ccnc3cc(F)ccc23)CC1 (centres unmarked) [Example 61, (4-(7-fluoroquinolin-4-yl)piperazin-1-yl)(1-((6-morpholinopyridin-3-yl)sulfonyl)piperidin-3-yl)methanone] as the compound, how does the inhibition at 5 µM [2] read?
The inhibition at 5 µM was greater than 90%.

For CN(C)c1ccc(S(=O)(=O)N2CCCC(C(=O)N3CCN(c4ncnc5ccccc45)CC3)C2)cc1 (centres unmarked) [Example 77], which inhibition at 5 µM [1] is on record?
The inhibition at 5 µM was 70 to 90%.

With Cn1cnc(S(=O)(=O)N2CCC(C(=O)N3CCN(c4ccnc5ccccc45)CC3)C2)c1 (centres unmarked) [Example 46, (1-((1-methyl-1H-imidazol-4-yl)sulfonyl)pyrrolidin-3-yl)(4-(quinolin-4-yl)piperazin-1-yl)methanone] as the compound, how does the inhibition at 5 µM [2] read?
The inhibition at 5 µM was greater than 90%.

O=C(c1nn[nH]n1)N1CC[C@H](C(=O)N2CCN(c3ccnc4cc(F)ccc34)CC2)C1 [Example 162, (S)-(1-(2H-tetrazole-5-carbonyl)pyrrolidin-3-yl)(4-(7-fluoroquinolin-4-yl)piperazin-1-yl)methanone] was tested. Which inhibition at 5 µM [2] did it give?
The inhibition at 5 µM was greater than 90%.

For O=C(C1CCCN(C(=O)C2CCCCC2)C1)N1CCN(c2ccnc3cc(F)ccc23)CC1 (centres unmarked) [Example 108, (1-(cyclohexylcarbonyl)piperidin-3-yl)(4-(7-fluoroquinolin-4-yl)piperazin-1-yl)methanone], which inhibition at 5 µM [3] is on record?
Its inhibition at 5 µM is 50 to 70%.

How did the inhibition at 5 µM [1] turn out when CC(=O)Nc1ccc(S(=O)(=O)N2CCCC(C(=O)N3CCN(c4ncnc5ccccc45)CC3)C2)cc1 (centres unmarked) [Example 74, N-(4-((3-(4-(quinazolin-4-yl)piperazine-1-carbonyl)piperidin-1-yl)sulfonyl)phenyl)acetamide] was run?
Its inhibition at 5 µM is 70 to 90%.

Which inhibition at 5 µM [1] does the source give for CC(C)n1cnc(S(=O)(=O)N2CC[C@H](C(=O)N3CCN(c4ccnc5cc(F)ccc45)CC3)C2)n1 [Example 141] here?
Its inhibition at 5 µM is 70 to 90%.

Which inhibition at 5 µM [3] does the source give for COc1ccc2c(N3CCN(C(=O)C4CCCN(C(=O)c5ccccc5)C4)CC3)ccnc2c1 (centres unmarked) [Example 91, (1-benzoylpiperidin-3-yl)(4-(7-methoxyquinolin-4-yl)piperazin-1-yl)methanone] here?
Its inhibition at 5 µM is 50 to 70%.

Which inhibition at 5 µM [2] does the source give for CC(=O)Nc1ccc(S(=O)(=O)N2CCC(C(=O)N3CCN(c4ccnc5ccccc45)CC3)C2)cn1 (centres unmarked) [Example 30, N-(5-((3-(4-(quinolin-4-yl)piperazine-1-carbonyl)pyrrolidin-1-yl)sulfonyl)pyridin-2-yl)acetamide] here?
Its inhibition at 5 µM is greater than 90%.

Which inhibition at 5 µM [2] does the source give for O=C(C1CCN(S(=O)(=O)c2ccc(-c3ccncc3)nc2)C1)N1CCN(c2ccnc3ccccc23)CC1 (centres unmarked) [Example 26, (1-([2,4′-bipyridin]-5-ylsulfonyl)pyrrolidin-3-yl)(4-(quinolin-4-yl)piperazin-1-yl)methanone] here?
The inhibition at 5 µM was greater than 90%.

Cc1cc(N2CCN(C(=O)C3CCCN(S(=O)(=O)c4cccs4)C3)CC2)c2ccccc2n1 (centres unmarked) [Example 127, (4-(2-methylquinolin-4-yl)piperazin-1-yl)(1-(thiophen-2-ylsulfonyl)piperidin-3-yl)methanone] was tested. Which inhibition at 5 µM [3] did it give?
Its inhibition at 5 µM is 50 to 70%.

With O=C(c1ccc(F)cc1)N1CCCC(C(=O)N2CCN(c3ccnc4cc(F)ccc34)CC2)C1 (centres unmarked) [Example 106, (1-(4-fluorobenzoyl)piperidin-3-yl)(4-(7-fluoroquinolin-4-yl)piperazin-1-yl)methanone] as the compound, how does the inhibition at 5 µM [1] read?
Its inhibition at 5 µM is 70 to 90%.

How did the inhibition at 5 µM [1] turn out when O=C(C1CCCN(S(=O)(=O)C2CCCCC2)C1)N1CCN(c2ccnc3cc(F)ccc23)CC1 (centres unmarked) [Example 117, (1-(cyclohexylsulfonyl)piperidin-3-yl)(4-(7-fluoroquinolin-4-yl)piperazin-1-yl)methanone] was run?
Its inhibition at 5 µM is 70 to 90%.

O=C(C1CCN(S(=O)(=O)c2ccc(Br)cc2)C1)N1CCN(c2ccnc3ccccc23)CC1 (centres unmarked) [Example 31, (1-((4-bromophenyl)sulfonyl)pyrrolidin-3-yl)(4-(quinolin-4-yl)piperazin-1-yl)methanone] was tested. Which inhibition at 5 µM [1] did it give?
Its inhibition at 5 µM is 70 to 90%.

With O=C(C1CCN(S(=O)(=O)c2ccc(-c3cccc(O)c3)nc2)C1)N1CCN(c2ccnc3ccccc23)CC1 (centres unmarked) [Example 27, (1-((6-(3-hydroxyphenyl)pyridin-3-yl)sulfonyl)pyrrolidin-3-yl)(4-(quinolin-4-yl)piperazin-1-yl)methanone] as the compound, how does the inhibition at 5 µM [2] read?
Its inhibition at 5 µM is greater than 90%.

How did the inhibition at 5 µM [3] turn out when CC(=O)Nc1ccc(C(=O)N2CCCC(C(=O)N3CCN(c4cc(C(F)(F)F)nc5ccccc45)CC3)C2)cc1 (centres unmarked) [Example 95, N-(4-(3-(1-(2-(trifluoromethyl)quinolin-4-yl)piperazine-4-carbonyl)piperidine-1-carbonyl)phenyl)acetamide] was run?
Its inhibition at 5 µM is 50 to 70%.

O=C(C1CCN(S(=O)(=O)c2ccc(-c3ccncc3)cc2)CC1)N1CCN(c2ccnc3ccccc23)CC1 [Example 64, (1-((4-(pyridin-4-yl)phenyl)sulfonyl)piperidin-4-yl)(4-(quinolin-4-yl)piperazin-1-yl)methanone] was tested. Which inhibition at 5 µM [2] did it give?
Its inhibition at 5 µM is greater than 90%.

Which inhibition at 5 µM [2] does the source give for Cc1n[nH]c(C)c1S(=O)(=O)N1CCC(C(=O)N2CCN(c3ccnc4cc(F)ccc34)CC2)C1 (centres unmarked) [Example 11, (1-((3,5-dimethyl-1H-pyrazol-4-yl)sulfonyl)pyrrolidin-3-yl)(4-(7-fluoroquinolin-4-yl)piperazin-1-yl)methanone] here?
The inhibition at 5 µM was greater than 90%.

With Cc1ccc(S(=O)(=O)N2CCCC(C(=O)N3CCN(c4ncnc5ccccc45)CC3)C2)cc1 (centres unmarked) [Example 75, (4-(quinazolin-4-yl)piperazin-1-yl)(1-tosylpiperidin-3-yl)methanone] as the compound, how does the inhibition at 5 µM [3] read?
The inhibition at 5 µM was 50 to 70%.

How did the inhibition at 5 µM [2] turn out when CC(=O)Nc1ccc(S(=O)(=O)N2CC(C(=O)N3CCN(c4ccnc5ccccc45)CC3)C2)cc1 [Example 70, N-(4-((3-(4-(quinolin-4-yl)piperazine-1-carbonyl)azetidin-1-yl)sulfonyl)phenyl)acetamide] was run?
Its inhibition at 5 µM is greater than 90%.

O=C([C@H]1CCN(S(=O)(=O)c2ncn(CCO)n2)C1)N1CCN(c2ccnc3cc(F)ccc23)CC1 [Example 140, (S)-(4-(7-fluoroquinolin-4-yl)piperazin-1-yl)(1-((1-(2-hydroxyethyl)-1H-1,2,4-triazol-3-yl)sulfonyl)pyrrolidin-3-yl)methanone] was tested. Which inhibition at 5 µM [2] did it give?
Its inhibition at 5 µM is greater than 90%.
